Source: ChEMBL document CHEMBL6182838, “Structure-activity relationship expansion and microsomal stability assessment of the 2-morpholinobenzoic acid scaffold as antiproliferative phosphatidylcholine-specific phospholipase C inhibitors” (RSC Med Chem, 2025)

Columns and labels:
MDA-MB-231 [1] = assay: Antiproliferative activity against human MDA-MB-231 cells assessed as cell proliferation at 10 uM measured after 3 days incubation followed by incubated 5 hrs with [3H]-thymidine by 3H-thymidine incorporation assay relative to control; format: functional; settings: MDA-MB-231, 72 h, time 3 day, read-out: Activity
Bacillus cereus = assay: Inhibition of Bacillus cereus phosphatidylcholine specific phospholipase C (PC-PLC BC) assessed as enzyme activity by measuring formation of resorufin fluorophore 10 uM by Amplex-Red based fluorescence assay relative to control; set-up: scale not given: the % may be the effect or the level left
HCT-116 [2] = assay: Antiproliferative activity against human HCT-116 cells assessed as cell proliferation at 10 uM measured after 3 days incubation followed by incubated 5 hrs with [3H]-thymidine by 3H-thymidine incorporation assay relative to control; format: functional; settings: HCT-116, 72 h, time 3 day, read-out: Activity
[3] = Metabolic stability in Sprague-Dawley rat microsomes assessed as degradation in presence of NADPH at 10 uM measured after 1 hr by HPLC analysis; format: ADME, Microsome
[4] = Metabolic stability in Sprague-Dawley rat microsomes assessed as degradation in absence of NADPH at 10 uM measured up to 60 mins by HPLC analysis; format: ADME, Microsome
MDA-MB-231 [5] = assay: Antiproliferative activity against human MDA-MB-231 cells assessed as cell proliferation measured after 3 days incubation followed by incubated 5 hrs with [3H]-thymidine by 3H-thymidine incorporation assay; format: functional, cell-based
HCT-116 [6] = assay: Antiproliferative activity against human HCT-116 cells assessed as cell proliferation measured after 3 days incubation followed by incubated 5 hrs with [3H]-thymidine by 3H-thymidine incorporation assay; format: functional, cell-based
[7] = Metabolic stability in Sprague-Dawley rat microsomes assessed as degradation in presence of NADPH at 10 uM measured up to 60 mins by HPLC analysis; format: ADME, Microsome

Compound | growth at 10 µM (MDA-MB-231 [1]) [%] | Activity (Bacillus cereus) [%] | growth at 10 µM (HCT-116 [2]) [%] | other results
O=C(O)c1cc(NCc2ccccc2Cl)ccc1C1CCOCC1 | 111 | 107 | 101 | Stability [3]: Stable
CN(Cc1ccccc1Cl)c1ccc(N2CCOCC2)c(C(=O)O)c1 | 95.5 |  | 87.8 | % remaining at 1 h, 10 µM ([4]; Sprague-Dawley, rat microsomes): 94%
CN(Cc1ccccc1Cl)c1ccc(N2CCOCC2)c(C(=O)NO)c1 | 4.3 |  | 4.8 | IC50 (MDA-MB-231 [5]): 1.1 µM; IC50 (HCT-116 [6]): 3.4 µM
O=C(O)c1ccc(NCc2ccccc2Cl)cc1N1CCOCC1 | 88 | 50.8 | 87.6 | Stability [3]: Stable
O=C(O)c1cc(NCc2ccccc2Cl)ccc1N1CCOCC1 |  |  |  | metabolised at 1 h, 10 µM ([7]; Sprague-Dawley, rat microsomes, read-out: Drug degradation): 17%
COC(=O)c1cc(NCc2cccc(Br)c2)ccc1C1CCOCC1 | 58.8 | 109 | 40.1 | 
O=C(NO)c1cc(NCc2ccccc2Br)ccc1C1CCOCC1 | 74 | 75.5 | 78.3 | 
COC(=O)c1ccc(NCc2ccc(Br)cc2)cc1N1CCOCC1 | 68.9 | 103 | 52.5 | 
O=C(NO)c1ccc(NCc2ccccc2)cc1N1CCOCC1 | 85.7 | 43.4 | 89.7 | 
COC(=O)c1ccc(NCc2cccc(Br)c2)cc1N1CCOCC1 | 62.9 | 97.4 | 34.7 | 
O=C(NO)c1ccc(NCc2cccc(Br)c2)cc1N1CCOCC1 | 25.3 | 45.3 | 32.3 | 
COC(=O)c1ccc(NCc2ccc(Cl)cc2)cc1N1CCOCC1 | 70.3 | 41.3 | 43.8 | 
COC(=O)c1cc(NCc2ccc(Br)cc2)ccc1C1CCOCC1 | 79.6 | 110 | 61.2 | 
CCOc1ccc2ccc(=O)oc2c1 [ETHOXYCOUMARIN] |  |  |  | Stability ([4]; microsomes, 1 h, 10 µM): Stable; Stability ([7]; microsomes, 1 h, 10 µM): Unstable
O=C(NO)c1cc(NCc2cccc(Br)c2)ccc1N1CCOCC1 |  |  | 1.9 | IC50 (MDA-MB-231 [5]): 3.3 µM; IC50 (HCT-116 [6]): 5.8 µM
O=C(NO)c1ccc(NCc2ccc(Br)cc2)cc1N1CCOCC1 | 21.8 | 45.6 | 18.1 | 
O=C(NO)c1cc(NCc2ccc(F)cc2)ccc1C1CCOCC1 | 86.6 | 93.7 | 91.6 | 
O=C(NO)c1ccc(NCc2ccccc2F)cc1N1CCOCC1 | 79.6 | 50.9 | 87.6 | 

Compound | growth at 10 µM (MDA-MB-231 [1]) [%] | Activity (Bacillus cereus) [%] | growth at 10 µM (HCT-116 [2]) [%] | other results
COc1ccccc1CNc1ccc(C(=O)NO)c(N2CCOCC2)c1 | 70.7 | 46.9 | 83.2 | 
COC(=O)c1ccc(NCc2cccc(F)c2)cc1N1CCOCC1 | 85.9 | 78.9 | 71 | 
O=C(O)c1cc(NCc2ccccc2)ccc1C1CCOCC1 | 107 | 54 | 99.8 | 
O=C(NO)c1cc(NCc2ccccc2)ccc1C1CCOCC1 | 90 | 80.7 | 80.2 | 
O=C(O)c1cc(NCc2ccccc2Br)ccc1C1CCOCC1 | 108 | 116 | 99.5 | 
COC(=O)c1ccc(NCc2cccc(OC)c2)cc1N1CCOCC1 | 80.6 | 109 | 48.5 | 
COC(=O)c1cc(NCc2ccc(OC)cc2)ccc1C1CCOCC1 | 71.2 | 75.4 | 54.5 | 
O=C(NO)c1ccc(NCc2ccccc2Br)cc1N1CCOCC1 | 30 | 54.7 | 54.5 | 
COC(=O)c1ccc(NCc2ccccc2F)cc1N1CCOCC1 | 92.8 | 105 | 67.4 | 
COc1ccc(CNc2ccc(C3CCOCC3)c(C(=O)O)c2)cc1 | 102 | 104 | 93.6 | 
O=C(NO)c1cc(NCc2cccc(Br)c2)ccc1C1CCOCC1 | 77.6 | 75.2 | 78.8 | 
COC(=O)c1cc(NCc2cccc(Cl)c2)ccc1C1CCOCC1 | 48.3 | 104 | 37.2 | 
COC(=O)c1cc(NCc2ccc(Cl)cc2)ccc1C1CCOCC1 | 83.8 | 112 | 56.7 | 
O=C(O)c1ccc(NCc2cccc(Br)c2)cc1N1CCOCC1 | 104 | 95.8 | 101 | 
O=C(O)c1ccc(NCc2ccccc2Br)cc1N1CCOCC1 | 90 | 95.2 | 94.4 | 
O=C(NO)c1cc(NCc2ccccc2Cl)ccc1N1CCOCC1 | 11.7 |  | 2 | IC50 (MDA-MB-231 [5]): 2.9 µM; IC50 (HCT-116 [6]): 4.9 µM
COC(=O)c1cc(NCc2ccccc2F)ccc1C1CCOCC1 | 17.6 | 62.3 | 9.5 | 
